Here are results for 5 compounds from publication PMC11672562, “Synthesis and Antibacterial Activity of New 6″-Modified Tobramycin Derivatives” (Antibiotics, 2024).

Each structure is given as a SMILES string. Converted amounts (≈) assume the structure as drawn.

The subject of assay [1] is E. coli JW5503 kanS. Description: MIC in LB medium, E. coli JW5503 kanS. It counts as cell-based. Particulars: Escherichia coli, JW5503KANS, 18 h. On the procedure:
The determination of the minimum inhibitory concentration (MIC) was performed on three strains from the working collection of MSU: E. coli JW5503 [34], which lacked a kanamycin resistance cassette removed as per the method outlined in [39], and two strains derived from this strain through in vivo selection with kanamycin. The latter strains harbored P610T and P610L substitutions in the fusA gene. For the MIC determination, 100 μL (rows 2–11) and 200 μL (row 1) of LB liquid medium containing a 1:1000 dilution of overnight culture was added to each well of a 96-well transparent plate. Subsequently, 2 μL of a 50 μg/mL antibiotic solution was introduced into the first row, and serial two-fold dilutions were performed across each horizontal row, decreasing the antibiotic concentration incrementally. The final two rows were designated as controls: row 12 contained LB medium without cells or antibiotics, and row 11 contained cells without antibiotics. Following 18 h of incubation at 37 °C with constant agitation, the optical density at 590 nm (A590) was measured using a Victor X5 2030 spectrofluorometer (PerkinElmer, Waltham, MA, USA). The MIC was defined as the antibiotic concentration in the first well where no cell growth occurred. Each experiment was conducted in triplicate for all tested antibiotics.

In assay [2] the test system is resistant clinical isolates of P. aeruginosa. Description: MIC against resistant clinical isolates of P. aeruginosa. As to conditions: for MIC: Pseudomonas aeruginosa. It counts as cell-based. The method, then:
(§1) The microbial strains used in this study were obtained from the collection of the Gause Institute of New Antibiotics. […] Storage was carried out in accordance with CLSI guidelines. Prior to experimentation, the bacterial strains were revived from cryopreservation by inoculating them onto trypticase soy agar (Becton, Dickinson, France) and incubating at (36 ± 1) °C for 16–24 h. Individual morphologically homogeneous colonies were then suspended in sterile physiological saline, and the turbidity of the suspension was adjusted to 0.5 McFarland units using a DEN-1 spectrophotometer (Biosan, Riga, Latvia), which corresponds to a concentration of 1.5 × 10^8 CFU/mL.
(§2) The samples were dissolved in sterile distilled water or dimethyl sulfoxide (DMSO), depending on the physicochemical properties of the compounds under investigation, to a concentration of 10,000 µg/mL.
(§3) Activity was evaluated by determining the minimum inhibitory concentration (MIC) values using the microdilution method in Mueller–Hinton Broth (Beckton and Dickinson, Le Pont-de-Claix, France), in accordance with the standard procedure for assessing the antimicrobial susceptibility of microorganisms.
(§4) The analysis was conducted in 96-well microtiter plates (Medpolymer, Saint Petersburg, Russia). The bacterial inoculum was introduced within 15 min of preparation. […] Microbial growth in the presence of the tested compounds was compared to the growth control (without exposure to the test samples). The MIC was defined as the lowest concentration at which visible microbial growth was inhibited.

The test system of assay [3] is S. aureus ATCC 29213. Briefly: MIC, broth microdilution, S. aureus ATCC 29213. As to conditions: Staphylococcus aureus, ATCC29213, Table 1, read-out: MIC. It is filed as cell-based. The method, then:
as §1, §2, §3, §4
(§5) The MIC values of the reference strains were required to fall within the acceptable ranges specified in [30], provided that standard assay conditions were maintained.
(Dilution methods test growth across graded concentrations, often in twofold steps.)

For assay [4], the system named is M. smegmatis ATCC 607. Briefly: MIC, broth microdilution, M. smegmatis ATCC 607. It counts as cell-based. As to conditions: Mycolicibacterium smegmatis, ATCC607, Table 1, read-out: MIC. On the procedure: as §1, §2, §3, §4
For assay [5], the system named is E. coli S30 Extract System, firefly luciferase synthesis. Description: Cell-free translation inhibition assay (firefly luciferase synthesis). It counts as biochemical. As to conditions: final concentration of 2 μM; water = 100. The method, then:
The inhibitory effects of the tested compounds on in vitro firefly luciferase synthesis were evaluated using the E. coli S30 Extract System for Linear Templates (Promega, Madison, WI, USA), as described previously. Briefly, reaction mixtures with a total volume of 5 μL were prepared, containing 0.1 mM of a mixture of all canonical amino acids, 4 U of RiboLock RNase Inhibitor (Thermo Fisher Scientific, Waltham, MA, USA), and 2 μM of the tested compounds. After pre-incubation at room temperature for 5 min, 100 ng of in vitro-transcribed firefly luciferase mRNA was added. The mixtures were then incubated at 37 °C for 20 min. After incubation, each reaction was supplemented with 5 μL of Bright-Glo™ reagent (Promega, Madison, WI, USA), and chemiluminescence was measured using a VICTOR X5 Multilabel Plate Reader (PerkinElmer, Waltham, MA, USA). The luminescence values were normalized to the negative control (water), which was assigned 100% activity.

In assay [6] the test system is P. aeruginosa ATCC 27853. Description: MIC, broth microdilution, P. aeruginosa ATCC 27853. It is filed as cell-based. Particulars: for MIC: Pseudomonas aeruginosa, ATCC27853, P. aeruginosa ATCC 27853, Table 1, read-out: MIC. On the procedure:
The microbial strains used in this study were obtained from the collection of the Gause Institute of New Antibiotics. […] Storage was carried out in accordance with CLSI guidelines.
as §3, §4, §5

Setting [7] is: P. aeruginosa strain, Table 2 column 3, head prints 27853.
Setting [8] is: P. aeruginosa strain, Table 2 column 4, head prints 27853.
Where [9] appears, read: P. aeruginosa strain, Table 2 column 5, head prints 27853.
Setting [10] is: P. aeruginosa strain, Table 2 column 6, head prints 27853.
The mark [11] stands for this setting: P. aeruginosa strain, Table 2 column 7, head prints 27853.
Where [12] appears, read: multidrug-resistant clinical isolates P. aeruginosa 21653 and P. aeruginosa 21571.

As a reminder, the MIC is the smallest concentration in the dilution series that meets the test's criterion for growth inhibition. Regarding `NCCNC[C@H]1O[C@H](O[C@@H]2[C@@H](O)[C@H](O[C@H]3O[C@H](CN)[C@@H](O)C[C@H]3N)[C@@H](N)C[C@H]2N)[C@H](O)[C@@H](N)[C@@H]1O` [Compound 4a, 6″-(2-Aminoethyamino)-6″-deoxytobramycin acetate], the MIC is 10 µg/mL in assay [1]; 16 µg/mL in assay [2] (setting [7]); 32 µg/mL in assay [2] (setting [8]); greater than 32 µg/mL in assay [2] (setting [9]); greater than 32 µg/mL in assay [2] (setting [10]); 32 µg/mL in assay [2] (setting [11]). For the same compound, the MIC in assay [2] (setting [12]) is 16 to 32 µg/mL; in assay [3] it was 0.125 µg/mL; in assay [4], 0.125 µg/mL; in assay [6] it was 1 µg/mL. The “% control signal (relative maximal rate of firefly luciferase accumulation in vitro)” value in assay [5] was 0.02%.
As for `NCCCNC[C@H]1O[C@H](O[C@@H]2[C@@H](O)[C@H](O[C@H]3O[C@H](CN)[C@@H](O)C[C@H]3N)[C@@H](N)C[C@H]2N)[C@H](O)[C@@H](N)[C@@H]1O` [Compound 4b, 6″-(3-Aminopropyl-1-amino)-6″-deoxytobramycin acetate], the minimum inhibitory concentration (MIC) is 20 µg/mL in assay [1]; 32 µg/mL in assay [2] (setting [7]); 32 µg/mL in assay [2] (setting [8]); greater than 32 µg/mL in assay [2] (setting [9]); greater than 32 µg/mL in assay [2] (setting [10]); greater than 32 µg/mL in assay [2] (setting [11]). Besides, the MIC in assay [3] was 0.125 µg/mL; in assay [4], 0.125 µg/mL; in assay [6], 8 µg/mL. Also, the “% control signal (relative maximal rate of firefly luciferase accumulation in vitro)” value in assay [5] is reported as 7%.
Regarding `N=C(N)NCCNC[C@H]1O[C@H](O[C@@H]2[C@@H](O)[C@H](O[C@H]3O[C@H](CN)[C@@H](O)C[C@H]3N)[C@@H](N)C[C@H]2N)[C@H](O)[C@@H](N)[C@@H]1O` [Compound 6a, 6″-(2-Guanidinoethylamino)-6″-deoxytobramycin acetate], the minimal inhibitory concentration (MIC) in assay [1] is 10 µg/mL; in assay [2] (setting [7]), 16 µg/mL; in assay [2] (setting [8]) it was 16 µg/mL; in assay [2] (setting [9]) it was greater than 32 µg/mL; in assay [2] (setting [10]), 32 µg/mL; in assay [2] (setting [11]), 32 µg/mL. Also, the MIC in assay [2] (setting [12]) was 16 to 32 µg/mL; in assay [3], 0.125 µg/mL; in assay [4], 0.125 µg/mL; in assay [6], 1 µg/mL. Moreover, the “% control signal (relative maximal rate of firefly luciferase accumulation in vitro)” value in assay [5] turned out to be 0.4%.
For the compound `N=C(N)NCCCNC[C@H]1O[C@H](O[C@@H]2[C@@H](O)[C@H](O[C@H]3O[C@H](CN)[C@@H](O)C[C@H]3N)[C@@H](N)C[C@H]2N)[C@H](O)[C@@H](N)[C@@H]1O` [Compound 6b, 6″-(3-Guanidinopropyl-1-amino)-6″-deoxytobramycin acetate], the minimum inhibitory concentration (MIC) in assay [1] was 40 µg/mL; in assay [2] (setting [7]), 16 µg/mL; in assay [2] (setting [8]), 32 µg/mL; in assay [2] (setting [9]), greater than 32 µg/mL; in assay [2] (setting [10]), greater than 32 µg/mL; in assay [2] (setting [11]), greater than 32 µg/mL. The MIC amounted to 0.5 µg/mL in assay [3], 0.25 µg/mL in assay [4] and 2 µg/mL in assay [6]. In addition, the “% control signal (relative maximal rate of firefly luciferase accumulation in vitro)” value in assay [5] was found to be 21%.
For `NC[C@H]1O[C@H](O[C@H]2[C@H](O)[C@@H](O[C@H]3O[C@H](CO)[C@@H](O)[C@H](N)[C@H]3O)[C@H](N)C[C@@H]2N)[C@H](N)C[C@@H]1O` [Tobramycin, tobramycin], the MIC was 5 µg/mL (≈ 10.7 µM) in assay [1]; greater than 128 µg/mL in assay [2] (setting [7]); greater than 128 µg/mL in assay [2] (setting [8]); greater than 128 µg/mL in assay [2] (setting [9]); greater than 32 µg/mL in assay [2] (setting [10]); greater than 32 µg/mL in assay [2] (setting [11]). Besides, the values for the MIC in assay [3], in assay [4] and in assay [6] were 0.06 µg/mL (≈ 0.128 µM), 0.06 µg/mL (≈ 0.128 µM) and 0.5 µg/mL (≈ 1.07 µM), respectively. This compound had a resistance index in assay [2] (resistant clinical isolates of P. aeruginosa strains) greater than 256. For the same compound, the “% control signal (relative maximal rate of firefly luciferase accumulation in vitro)” value in assay [5] was 0.01%. Also, the “MIC of control antibiotic” value in assay [6] (P. aeruginosa ATCC 27853, quality control, must fall in acceptable ranges of [30]) fell in the range of 0.25 to 1 µg/mL.
